The target of one data set is PaODH (Pseudomonas aeruginosa, UniProt Q9HUX5). The data set is described as follows: NADPH fluorescence, titrated with enzyme. The data set is classed as binding.
For the next data set, the target named is PaNAS (Pseudomonas aeruginosa, UniProt Q9HUX4). Nature of the data set: biochemical.
In data set [1] the test system is N[C@H](Cc1c[nH]cn1)C(=O)O. The data set is described as follows: purified protein. As to conditions: co-substrate SAM, coupled with SaODH, NADPH, pyruvate, 50 mM Tris pH 8.

Chain of PaNAS (Q9HUX4 whole entry): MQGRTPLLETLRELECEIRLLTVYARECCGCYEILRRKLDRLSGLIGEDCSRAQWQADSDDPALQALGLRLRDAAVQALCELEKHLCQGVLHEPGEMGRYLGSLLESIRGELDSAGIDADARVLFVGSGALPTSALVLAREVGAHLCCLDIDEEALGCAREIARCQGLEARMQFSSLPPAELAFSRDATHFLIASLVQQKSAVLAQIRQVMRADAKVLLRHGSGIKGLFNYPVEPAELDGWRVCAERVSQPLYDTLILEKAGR
Chain of PaODH (Q9HUX5 whole entry): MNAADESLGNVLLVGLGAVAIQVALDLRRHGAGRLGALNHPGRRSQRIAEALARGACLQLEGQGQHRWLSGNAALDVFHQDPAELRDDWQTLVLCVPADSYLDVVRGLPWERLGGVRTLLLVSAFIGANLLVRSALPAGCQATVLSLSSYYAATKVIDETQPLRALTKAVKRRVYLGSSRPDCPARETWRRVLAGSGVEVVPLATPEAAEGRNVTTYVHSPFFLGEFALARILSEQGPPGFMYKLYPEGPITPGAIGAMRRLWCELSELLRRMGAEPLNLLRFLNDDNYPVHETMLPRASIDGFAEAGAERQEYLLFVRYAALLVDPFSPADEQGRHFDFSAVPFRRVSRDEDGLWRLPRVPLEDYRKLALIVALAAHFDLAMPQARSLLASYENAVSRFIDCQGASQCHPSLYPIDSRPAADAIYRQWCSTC

Molecule `NC(=O)C1=CN([C@@H]2O[C@H](COP(=O)(O)OP(=O)(O)OC[C@H]3O[C@@H](n4cnc5c(N)ncnc54)[C@H](OP(=O)(O)O)[C@@H]3O)[C@@H](O)[C@H]2O)C=CC1` [NADPH] showed a Kd at PaODH of 11 ± 1 µM.
Turning to `C[S+](CC[C@H](N)C(=O)O)C[C@H]1O[C@@H](n2cnc3c(N)ncnc32)[C@H](O)[C@@H]1O` (stereo partly shown) [SAM], the Kd at PaNAS was 1.2 ± 0.3 µM.
On to “SaNAS (Staphylococcus aureus subsp. aureus Mu50)”, for which, in data set [1], the Km is 13.0 ± 0.7 µM and the kcat was found to be 0.0298 ± 0.00033 s⁻¹.

For the origin of these results see PMC5699221 (Biochemistry, 2017).
